Experiments:
[1] = Neuroprotective activity in rat neuron assessed as NMDA-induced intracellular calcium level at 1 ug/ml preincubated for 5 mins followed by glutamic acid stimulation and measured for 20 mins (reference value: 235%); type: functional; settings: time 25 min
[2] = Neuroprotective activity in rat neuron assessed as glutamic acid induced intracellular calcium level at 3 ug/ml preincubated for 5 mins followed by glutamic acid stimulation and measured for 30 mins (reference value: 305%); type: functional; settings: time 35 min
[3] = Neuroprotective activity in rat neuron assessed as glutamic acid induced intracellular calcium level at 1 ug/ml preincubated for 5 mins followed by glutamic acid stimulation and measured for 30 mins (reference value: 305%); type: functional; settings: time 35 min
[4] = Neuroprotective activity in rat neuron assessed as glutamic acid induced intracellular calcium level at 0.5 ug/ml preincubated for 5 mins followed by glutamic acid stimulation and measured for 30 mins (reference value: 305%); type: functional; settings: time 35 min
[5] = Toxicity in iv dosed rat; type: organism-based; settings: in vivo
[6] = Displacement of [3H]-(-)-nicotine from rat cerebral cortex nAChR incubated for 60 mins by liquid scintillation spectrometry
[7] = molecular target: Neuronal acetylcholine receptor subunit alpha-7 (Homo sapiens, UniProt P36544)
Description: Displacement of [125I]alpha-bungarotoxin from human alpha7 nAChR expressed in K28 cell membrane

Mus musculus [8] = species: Mus musculus; experiment: animal or person
Description: Antinociceptive activity in mouse

Mus musculus [9] = species: Mus musculus; experiment: animal or person; remark: listed apart in the source
Description: Antinociceptive activity against mecamylamine-treated mouse

Mus musculus [10] = species: Mus musculus; experiment: animal or person; remark: listed apart in the source
Description: Antinociceptive activity in naloxone treated mouse assessed as induction of Straub-tail response

[11] = Antagonist activity at 5HT1 in Wistar rat stomach fundus strip assessed as inhibition of 5-hydroxy-tryptamine evoked contraction preincubated for 20 mins followed by 5-HT addition; type: tissue-based
[12] = Acute toxicity in po dosed dog administered as repeated dose for 28 days; type: organism-based, Canis lupus familiaris; settings: in vivo, time 28 day
[13] = Acute toxicity in po dosed dog administered as single dose for 28 days; type: organism-based, Canis lupus familiaris; settings: in vivo, time 28 day
[14] = Acute toxicity in po dosed mouse administered as repeated dose for 28 days; type: organism-based; settings: in vivo, time 28 day
[15] = Acute toxicity in po dosed mouse administered as single dose for 28 days; type: organism-based; settings: in vivo, time 28 day
Rattus norvegicus [16] = experiment: Memory enhancing effect in Sprague-Dawley rat model of ibotenic-acid-induced impairment of forebrain cholinergic projection system assessed as improvement in reference memory at 0.36 to 1.4 micromol/kg, po by radial arm maze test relative to control; type: functional; settings: dose 0.36-1.4 µmol/kg
Rattus norvegicus [17] = experiment: Memory enhancing effect in rat model of mecamylamine-induced amnesia assessed as decrease in latency to find platform at 0.3 to 3 micromol/kg, po by water-navigation test relative to control; type: functional; parameters: scale not given: the % may be the effect or the level left; settings: dose 0.3-3 µmol/kg; at 0.3 to 3 µmol/kg
Rattus norvegicus [18] = experiment: Cognitive enhancing effect in Wistar rat assessed as reversal of scopolamine-induced amnesia at 0.6 micromol/kg, sc by passive-avoidance test relative to control; type: functional; settings: dose 0.6 µmol/kg
[19] = molecular target: T1, Neuronal acetylcholine receptor; alpha4/beta2 (Rattus norvegicus) (UniProt P09483+P12390); experiment: Agonist activity at rat alpha4beta2 expressed in Xenopus oocytes assessed as peak activation at 100 uM relative to control; type: cell-based; settings: Oocyte, filed as agonist
[20] = In vivo agonist activity at nAChR in rat assessed as serotonin level in cortex at 3.6 micromol/kg, sc by microdialysis relative to control; type: functional; settings: dose 3.6 µmol/kg
[21] = In vivo agonist activity at nAChR in rat assessed as nor-epinephrine level in cortex at 3.6 micromol/kg, sc by microdialysis relative to control; type: functional; settings: dose 3.6 µmol/kg
[22] = In vivo agonist activity at nAChR in rat assessed as dopamine level in cortex at 3.6 micromol/kg, sc by microdialysis relative to control; type: functional; settings: dose 3.6 µmol/kg
[23] = In vivo agonist activity at nAChR in rat assessed as acetylcholine level in cortex at 3.6 micromol/kg, sc by microdialysis relative to control; type: functional; settings: dose 3.6 µmol/kg
Rattus norvegicus [24] = species: Rattus norvegicus; experiment: Agonist activity at nAChR in rat striatal synaptosomes assessed as [3H]dopamine release relative to tetramethylammonium; type: subcellular; settings: Striatum, filed as agonist
[25] = molecular target: T1, Neuronal acetylcholine receptor; alpha4/beta2 (Rattus norvegicus); experiment: Agonist activity at alpha4beta2 nAChR in rat thalamic synaptosomes assessed as 86Rb efflux relative to tetramethylammonium; type: subcellular; settings: Thalamus, filed as agonist
[26] = molecular target: T2, Neuronal acetylcholine receptor; alpha4/beta2 (Rattus norvegicus, UniProt P09483+P12390); experiment: Inhbition of [3H] nicotine binding to rat brain alpha4beta2 nAChR
[27] = Displacement of [3H]nicotine from sodium channel site2 (unknown origin); parameters: species or system Homo sapiens
[28] = molecular target: 5-hydroxytryptamine receptor 3A (Homo sapiens, UniProt P46098); experiment: Displacement of […] from 5-hydroxytryptamine receptor 3A (unknown origin)
[29] = molecular target: 5-hydroxytryptamine receptor 2A (Homo sapiens, UniProt P28223); experiment: Displacement of […] from 5-hydroxytryptamine receptor 2A (unknown origin)
[30] = molecular target: 5-hydroxytryptamine receptor 1A (Homo sapiens, UniProt P08908); experiment: Displacement of […] from 5-hydroxytryptamine receptor 1A (unknown origin)
[31] = molecular target: Glutamate [NMDA] receptor; experiment: Displacement of [3H]nicotine from NMDA receptor (unknown origin); type: protein-complex assay, Homo sapiens
[32] = Displacement of [3H]nicotine from dopamine D4.2 receptor (unknown origin); parameters: species or system Homo sapiens
D(3) dopamine receptor = D(3) dopamine receptor (Homo sapiens, UniProt P35462); experiment: Displacement of [3H]nicotine from dopamine D3 receptor (unknown origin)
Thromboxane A2 receptor = Thromboxane A2 receptor (Homo sapiens, UniProt P21731); experiment: Displacement of [3H]nicotine from Thromboxane A2 (unknown origin)
[33] = molecular target: Neuropeptide Y receptor type 2 (Homo sapiens, UniProt P49146); experiment: Displacement of [3H]nicotine from NPY2R (unknown origin)
[34] = Displacement of [3H]nicotine from neurokinin receptor (unknown origin); parameters: species or system Homo sapiens
[35] = Displacement of [3H]nicotine from Leukotriene B4 receptor (unknown origin); parameters: species or system Homo sapiens
B2 bradykinin receptor = B2 bradykinin receptor (Homo sapiens, UniProt P30411); experiment: Displacement of […] from B2 bradykinin receptor (unknown origin)
Histamine H3 receptor = Histamine H3 receptor (Homo sapiens, UniProt Q9Y5N1); experiment: Displacement of [3H]nicotine from Histamine H3 receptor (unknown origin)
[36] = molecular target: Muscarinic acetylcholine receptor M3 (Homo sapiens, UniProt P20309); experiment: Displacement of [3H]nicotine from muscarinic M3 receptor (unknown origin)
[37] = molecular target: Muscarinic acetylcholine receptor M2 (Homo sapiens, UniProt P08172); experiment: Displacement of [3H]nicotine from muscarinic M2 receptor (unknown origin)
[38] = molecular target: Muscarinic acetylcholine receptor M1 (Homo sapiens, UniProt P11229); experiment: Displacement of [3H]nicotine from muscarinic M1 receptor (unknown origin)
[39] = molecular target: Endothelin receptor type B (Homo sapiens, UniProt P24530); experiment: Displacement of [3H]nicotine from Endothelin receptor type B (unknown origin)
Endothelin-1 receptor = Endothelin-1 receptor (Homo sapiens, UniProt P25101); experiment: Displacement of [3H]nicotine from Endothelin receptor type A (unknown origin)
[40] = molecular target: Gastrin/cholecystokinin type B receptor (Homo sapiens, UniProt P32239); experiment: Displacement of [3H]nicotine from cholecystokinin receptor type B (unknown origin)
[41] = molecular target: Cholecystokinin receptor type A (Homo sapiens, UniProt P32238); experiment: Displacement of [3H]nicotine from cholecystokinin receptor type A (unknown origin)
[42] = Displacement of [3H]nicotine from angiotensin II receptor (unknown origin); parameters: species or system Homo sapiens
[43] = molecular target: T2, Neuronal acetylcholine receptor; alpha4/beta2
Description: Agonist activity at alpha4beta2 nAChR in rat thalamic synaptosomes assessed as increase in 86Rb efflux

[44] = molecular target: GABA-A receptor alpha-1/beta-1 (Bos taurus, UniProt P08219+P08220)
Description: Competitive inhibition of bovine GABAA alpha1beta1 expressed in Xenopus laevis oocytes

Acetylcholinesterase = Acetylcholinesterase (Bos taurus, UniProt P23795)
[45] = molecular target: T2, Neuronal acetylcholine receptor; alpha4/beta2; experiment: Binding affinity to rat alpha4beta2 nAChR; type: protein-complex assay
[46] = molecular target: T1, Neuronal acetylcholine receptor; alpha4/beta2 (Rattus norvegicus); experiment: Potency index, ratio of nicotine EC50 to test compound EC50 for agonist activity at rat alpha4beta2 nAChR; type: protein-complex assay
[47] = molecular target: Neuronal acetylcholine receptor subunit alpha-7 (Rattus norvegicus) (UniProt Q05941); experiment: Potency index, ratio of nicotine Ki to test compound Ki for rat alpha7 nAChR
[48] = molecular target: Neuronal acetylcholine receptor subunit alpha-7 (Rattus norvegicus) (UniProt Q05941); experiment: Potency index, ratio of nicotine EC50 to test compound EC50 for rat alpha7 nAChR
[49] = molecular target: T2, Neuronal acetylcholine receptor; alpha4/beta2; remark: listed apart in the source
Description: Agonist activity at rat alpha4beta2 nAChR

[50] = molecular target: T3, Neuronal acetylcholine receptor subunit alpha-7 (Rattus norvegicus, UniProt Q05941)
Description: Agonist activity at rat alpha7 nAChR

[51] = molecular target: T3, Neuronal acetylcholine receptor subunit alpha-7; remark: listed apart in the source
Description: Binding affinity to rat alpha7 nAChR

T2 sequence (P09483 whole entry): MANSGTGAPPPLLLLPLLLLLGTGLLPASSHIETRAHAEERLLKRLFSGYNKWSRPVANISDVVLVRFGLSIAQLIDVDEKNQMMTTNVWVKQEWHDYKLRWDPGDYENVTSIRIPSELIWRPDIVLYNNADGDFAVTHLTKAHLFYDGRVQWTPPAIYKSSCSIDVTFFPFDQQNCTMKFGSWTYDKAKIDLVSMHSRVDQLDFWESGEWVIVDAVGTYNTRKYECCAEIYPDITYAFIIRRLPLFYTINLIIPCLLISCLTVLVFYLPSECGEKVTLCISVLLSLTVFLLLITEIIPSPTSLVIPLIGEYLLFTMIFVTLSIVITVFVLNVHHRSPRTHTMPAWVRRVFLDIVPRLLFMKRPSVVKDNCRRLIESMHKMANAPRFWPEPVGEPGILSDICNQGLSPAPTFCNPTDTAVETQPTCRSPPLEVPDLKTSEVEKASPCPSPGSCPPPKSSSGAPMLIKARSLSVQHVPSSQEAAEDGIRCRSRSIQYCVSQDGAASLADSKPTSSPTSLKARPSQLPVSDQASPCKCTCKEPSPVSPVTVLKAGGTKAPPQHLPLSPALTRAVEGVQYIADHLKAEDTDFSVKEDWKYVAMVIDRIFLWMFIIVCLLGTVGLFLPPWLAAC
T2 sequence (P12390 whole entry): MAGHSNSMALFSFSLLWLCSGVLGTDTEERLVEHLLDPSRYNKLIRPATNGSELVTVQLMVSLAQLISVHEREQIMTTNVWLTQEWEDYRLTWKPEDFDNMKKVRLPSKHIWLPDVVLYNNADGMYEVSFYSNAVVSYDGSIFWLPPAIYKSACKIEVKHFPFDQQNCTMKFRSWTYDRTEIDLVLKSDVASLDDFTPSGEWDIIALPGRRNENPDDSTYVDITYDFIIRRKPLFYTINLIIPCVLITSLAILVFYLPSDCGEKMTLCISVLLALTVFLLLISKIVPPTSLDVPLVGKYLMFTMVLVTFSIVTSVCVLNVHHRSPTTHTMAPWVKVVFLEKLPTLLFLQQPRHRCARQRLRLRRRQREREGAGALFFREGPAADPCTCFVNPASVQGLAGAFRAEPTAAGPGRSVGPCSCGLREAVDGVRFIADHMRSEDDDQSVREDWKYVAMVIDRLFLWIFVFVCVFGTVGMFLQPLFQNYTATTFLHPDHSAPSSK
Neuronal acetylcholine receptor subunit alpha-7 (Rattus norvegicus), sequence (Q05941 whole entry): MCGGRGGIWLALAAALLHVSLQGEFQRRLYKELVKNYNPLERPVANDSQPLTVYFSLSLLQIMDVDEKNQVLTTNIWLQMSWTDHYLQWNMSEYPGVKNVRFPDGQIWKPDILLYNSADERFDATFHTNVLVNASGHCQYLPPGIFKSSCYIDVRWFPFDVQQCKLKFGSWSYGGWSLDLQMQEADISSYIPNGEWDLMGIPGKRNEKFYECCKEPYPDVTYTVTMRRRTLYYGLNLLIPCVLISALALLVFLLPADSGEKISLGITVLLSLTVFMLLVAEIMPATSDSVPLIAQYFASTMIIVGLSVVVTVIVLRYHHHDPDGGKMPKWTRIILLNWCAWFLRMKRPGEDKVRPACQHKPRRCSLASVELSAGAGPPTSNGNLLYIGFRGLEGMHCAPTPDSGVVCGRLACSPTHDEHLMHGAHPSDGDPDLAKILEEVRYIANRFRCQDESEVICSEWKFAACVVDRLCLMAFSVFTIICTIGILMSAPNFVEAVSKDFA
T3 sequence (Q05941 whole entry): as above
Muscarinic acetylcholine receptor M2, sequence (P08172 whole entry): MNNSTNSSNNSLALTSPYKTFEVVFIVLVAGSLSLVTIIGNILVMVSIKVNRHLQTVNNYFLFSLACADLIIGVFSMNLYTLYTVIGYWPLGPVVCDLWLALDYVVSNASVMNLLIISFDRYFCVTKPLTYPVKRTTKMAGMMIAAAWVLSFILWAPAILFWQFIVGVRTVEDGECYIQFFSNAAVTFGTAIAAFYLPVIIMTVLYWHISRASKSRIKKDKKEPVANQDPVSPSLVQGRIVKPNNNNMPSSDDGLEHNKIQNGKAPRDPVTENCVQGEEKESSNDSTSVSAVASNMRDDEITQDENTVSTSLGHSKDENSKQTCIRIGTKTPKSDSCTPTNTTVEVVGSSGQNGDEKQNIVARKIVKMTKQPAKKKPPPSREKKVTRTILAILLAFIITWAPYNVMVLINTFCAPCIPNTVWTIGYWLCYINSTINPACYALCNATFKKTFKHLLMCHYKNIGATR
Neuronal acetylcholine receptor subunit alpha-7 (Homo sapiens, UniProt P36544), sequence (P36544 whole entry): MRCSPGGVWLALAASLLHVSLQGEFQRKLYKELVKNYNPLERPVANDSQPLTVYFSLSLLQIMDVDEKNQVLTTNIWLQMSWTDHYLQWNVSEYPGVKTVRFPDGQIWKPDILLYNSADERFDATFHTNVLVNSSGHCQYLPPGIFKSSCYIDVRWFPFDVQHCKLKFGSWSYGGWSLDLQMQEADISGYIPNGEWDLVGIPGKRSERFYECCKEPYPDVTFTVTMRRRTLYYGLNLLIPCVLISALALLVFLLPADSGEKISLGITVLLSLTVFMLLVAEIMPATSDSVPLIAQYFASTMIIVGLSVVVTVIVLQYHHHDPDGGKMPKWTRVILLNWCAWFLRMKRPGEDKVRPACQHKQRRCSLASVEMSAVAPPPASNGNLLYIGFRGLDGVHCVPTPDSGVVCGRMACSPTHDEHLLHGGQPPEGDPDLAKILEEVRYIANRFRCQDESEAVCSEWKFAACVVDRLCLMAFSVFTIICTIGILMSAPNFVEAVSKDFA
Muscarinic acetylcholine receptor M3, sequence (P20309 whole entry): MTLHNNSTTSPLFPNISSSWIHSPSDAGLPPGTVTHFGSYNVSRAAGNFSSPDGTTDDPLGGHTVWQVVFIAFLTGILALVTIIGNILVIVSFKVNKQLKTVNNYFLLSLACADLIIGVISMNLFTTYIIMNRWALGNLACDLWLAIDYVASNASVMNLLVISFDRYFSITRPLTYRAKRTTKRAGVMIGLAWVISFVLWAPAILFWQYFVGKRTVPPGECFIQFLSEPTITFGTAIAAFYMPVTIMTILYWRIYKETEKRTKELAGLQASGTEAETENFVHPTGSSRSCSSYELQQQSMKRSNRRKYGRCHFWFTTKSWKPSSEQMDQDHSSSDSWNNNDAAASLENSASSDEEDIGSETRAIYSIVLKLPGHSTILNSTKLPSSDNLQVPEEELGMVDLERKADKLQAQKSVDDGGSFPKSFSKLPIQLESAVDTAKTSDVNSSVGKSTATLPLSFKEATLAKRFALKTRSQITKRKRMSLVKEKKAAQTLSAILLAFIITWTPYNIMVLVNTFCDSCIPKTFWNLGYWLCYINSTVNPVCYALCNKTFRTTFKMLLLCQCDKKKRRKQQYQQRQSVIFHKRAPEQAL
Acetylcholinesterase, sequence (P23795 whole entry): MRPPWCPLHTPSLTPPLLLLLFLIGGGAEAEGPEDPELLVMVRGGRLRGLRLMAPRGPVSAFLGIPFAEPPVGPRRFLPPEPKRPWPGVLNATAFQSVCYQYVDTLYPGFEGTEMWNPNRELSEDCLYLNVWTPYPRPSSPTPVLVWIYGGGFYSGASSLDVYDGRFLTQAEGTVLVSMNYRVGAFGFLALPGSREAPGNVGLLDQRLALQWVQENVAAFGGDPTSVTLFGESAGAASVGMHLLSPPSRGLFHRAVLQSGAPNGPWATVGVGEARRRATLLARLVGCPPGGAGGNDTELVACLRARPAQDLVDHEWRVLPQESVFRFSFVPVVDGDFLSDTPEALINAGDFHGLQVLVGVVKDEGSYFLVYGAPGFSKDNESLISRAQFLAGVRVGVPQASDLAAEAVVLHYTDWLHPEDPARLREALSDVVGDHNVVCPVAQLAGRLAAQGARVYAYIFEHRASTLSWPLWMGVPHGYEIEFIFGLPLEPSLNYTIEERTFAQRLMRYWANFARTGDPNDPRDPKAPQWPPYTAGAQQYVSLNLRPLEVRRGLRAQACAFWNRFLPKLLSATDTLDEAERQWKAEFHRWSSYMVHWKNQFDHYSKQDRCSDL
Endothelin-1 receptor, sequence (P25101 whole entry): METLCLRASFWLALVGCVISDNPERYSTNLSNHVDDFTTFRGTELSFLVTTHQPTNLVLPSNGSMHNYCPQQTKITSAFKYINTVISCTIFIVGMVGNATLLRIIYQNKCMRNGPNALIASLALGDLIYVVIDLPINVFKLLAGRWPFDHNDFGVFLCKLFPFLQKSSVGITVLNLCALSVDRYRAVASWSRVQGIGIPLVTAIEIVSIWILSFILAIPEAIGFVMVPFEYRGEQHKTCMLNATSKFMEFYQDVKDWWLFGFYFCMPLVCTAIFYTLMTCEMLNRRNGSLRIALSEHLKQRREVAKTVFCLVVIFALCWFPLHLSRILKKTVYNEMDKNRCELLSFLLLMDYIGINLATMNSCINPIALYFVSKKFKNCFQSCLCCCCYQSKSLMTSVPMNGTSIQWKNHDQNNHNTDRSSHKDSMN
Histamine H3 receptor, sequence (Q9Y5N1 whole entry): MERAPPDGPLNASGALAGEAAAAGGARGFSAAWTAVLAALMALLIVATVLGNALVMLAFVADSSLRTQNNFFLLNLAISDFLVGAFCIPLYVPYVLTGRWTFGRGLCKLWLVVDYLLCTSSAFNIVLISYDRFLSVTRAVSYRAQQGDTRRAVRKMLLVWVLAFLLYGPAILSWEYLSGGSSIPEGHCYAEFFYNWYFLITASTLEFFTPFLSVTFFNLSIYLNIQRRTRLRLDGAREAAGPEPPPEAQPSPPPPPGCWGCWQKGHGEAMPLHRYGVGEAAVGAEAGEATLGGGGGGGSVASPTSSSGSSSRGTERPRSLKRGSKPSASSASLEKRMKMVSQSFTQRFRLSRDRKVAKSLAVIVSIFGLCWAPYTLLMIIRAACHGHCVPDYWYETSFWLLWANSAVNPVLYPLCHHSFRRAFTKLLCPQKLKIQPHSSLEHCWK

O=C([O-])c1ccc[n+](CCOC(=O)c2ccc[nH]2)c1
Activity [1]: 63.5% | Activity [2]: 25.1% | Activity [3]: 65.4% | Activity [4]: 58.1%

Clc1ccc(C2CC3CCC2N3)cn1 (stereo in doubt; (+)) [EPIBATIDINE]
LD50 [5]: < 0.125 µmol/kg | IC50 [6]: 0.0001 µM | Ki [7]: 0.0022 µM | ED50 (Mus musculus [8]): 0.0136 mg/kg | ED50 (Mus musculus [9]): 0.289 mg/kg | ED50 (Mus musculus [10]): 0.02 mg/kg

O=C([O-])c1ccc[n+](CCOC(=O)c2cc(Br)c[nH]2)c1
IC50 [11]: 80 µM

CN(C)CC/C=C/c1cccnc1
LD50 at 672 h [12]: 1.8e+06 µmol/kg | LD50 at 672 h [13]: 1.8e+06 µmol/kg | LD50 at 672 h [14]: 1.8e+06 µmol/kg | LD50 at 672 h [15]: 1.8e+06 µmol/kg | fold change (FC) (Rattus norvegicus [16]): 2 | Activity (Rattus norvegicus [17]): 40% | Activity (Rattus norvegicus [18]): 50% | Activity [19]: 492% | Activity [20]: 170% | Activity [21]: 150% | Activity [22]: 150% | Activity [23]: 190% | Emax (Rattus norvegicus [24]): 81% | Emax [25]: 79% | Ki [26]: 0.026 µM | IC50 [27]: > 10 µM | IC50 [28]: > 10 µM | IC50 [29]: > 10 µM | IC50 [30]: > 10 µM | IC50 [31]: > 10 µM | IC50 [32]: > 10 µM | IC50 (D(3) dopamine receptor): > 10 µM | IC50 (Thromboxane A2 receptor): > 10 µM | IC50 [33]: > 10 µM | IC50 [34]: > 10 µM | IC50 [35]: > 10 µM | IC50 (B2 bradykinin receptor): > 10 µM | IC50 (Histamine H3 receptor): > 10 µM | IC50 [36]: > 10 µM | IC50 [37]: > 10 µM | IC50 [38]: > 10 µM | IC50 [39]: > 10 µM | IC50 (Endothelin-1 receptor): > 10 µM | IC50 [40]: > 10 µM | IC50 [41]: > 10 µM | IC50 [42]: > 10 µM | EC50 [43]: 0.732 µM

C[n+]1cccc(C(=O)[O-])c1 [TRIGONELLINE]
Ki [44]: 0.013 µM | IC50 (Acetylcholinesterase): 233 µM

c1cncc(C2=NCCCC2)c1 [ANABASEINE]
Ki [45]: 0.032 µM | Ratio EC50 [46]: 3 | Ratio Ki [47]: 7 | Ratio EC50 [48]: 7 | EC50 [49]: 4.2 µM | EC50 [50]: 6.7 µM | Ki [51]: 0.058 µM

Source: ChEMBL document CHEMBL4673260, “Pyridine alkaloids with activity in the central nervous system” (Bioorg Med Chem, 2020)
